Assay results as given in patent publication US20220386606A1, “SPECIFICALLY SUBSTITUTED 3-PHENYL-5-SPIROCYCLOPENTYL-3-PYRROLIN-2-ONES AND THEIR USE AS HERBICIDES” (Bayer Aktiengesellschaft, priority 2019, published 2022).

How the values were obtained:
SETVI [1] = test: Pre-emergence herbicidal action against SETVI; format: in vivo, Setaria viridis; conditions: 320 g/ha, scored visually after 3 weeks vs untreated controls
From the text: (§1) Seeds of monocotyledonous and dicotyledonous weed plants and crop plants are laid out in sandy loam soil in wood-fiber pots and covered with soil. The compounds of the invention, formulated in the form of wettable powders (WP) or as emulsion concentrates (EC), are then applied to the surface of the covering soil as aqueous suspension or emulsion at a water application rate equating to 600 to 800 L/ha with addition of 0.2% wetting agent.
(§2) After the treatment, the pots are placed in a greenhouse and kept under good growth conditions for the trial plants. The damage to the test plants is scored visually after a test period of 3 weeks by comparison with untreated controls (herbicidal activity in percent (%): 100% activity=the plants have died, 0% activity=like control plants).

LOLRI [2] = test: Post-emergence herbicidal action against LOLRI; format: in vivo, Lolium rigidum; conditions: 80 g/ha, visual assessment about 3 weeks after treatment vs untreated controls
Procedure: (§3) Seeds of monocotyledonous and dicotyledonous weed and crop plants are laid out in sandy loam soil in wood-fiber pots, covered with soil and cultivated in a greenhouse under good growth conditions. 2 to 3 weeks after sowing, the test plants are treated at the one-leaf stage. The compounds of the invention, formulated in the form of wettable powders (WP) or as emulsion concentrates (EC), are then sprayed onto the green parts of the plants as aqueous suspension or emulsion at a water application rate equating to 600 to 800 l/ha with addition of 0.2% wetting agent. After the test plants have been left to stand in the greenhouse under optimal growth conditions for about 3 weeks, the action of the preparations is assessed visually in comparison to untreated controls (herbicidal action in percent (%): 100% activity=the plants have died, 0% activity=like control plants).

AVEFA [3] = test: Post-emergence herbicidal action against AVEFA; format: in vivo, Avena fatua; conditions: 80 g/ha, visual assessment after about 3 weeks
Procedure: as §3

DIGSA [4] = test: Post-emergence herbicidal action against DIGSA; format: in vivo, Digitaria sanguinalis; conditions: 80 g/ha, visual assessment about 3 weeks after treatment vs untreated controls
Procedure: as §3

LOLRI [5] = test: Pre-emergence herbicidal action against LOLRI (Table 8, titled post-emergence at 320 g/ha); format: in vivo, Lolium rigidum; conditions: table stands in the pre-emergence section
From the text: as §1, §2

ECHCG [6] = test: Pre-emergence herbicidal action against ECHCG; format: in vivo, Echinochloa crus-galli; conditions: 320 g/ha, scored visually after 3 weeks vs untreated controls
From the text: as §1, §2

ALOMY [7] = test: Post-emergence herbicidal action against ALOMY; format: in vivo, Alopecurus myosuroides; conditions: 80 g/ha, visual assessment after about 3 weeks
Procedure: as §3

SETVI [8] = test: Post-emergence herbicidal action against SETVI; format: in vivo, Setaria viridis; conditions: 80 g/ha, visual assessment about 3 weeks after treatment vs untreated controls
Procedure: as §3

DIGSA [9] = test: Pre-emergence herbicidal action against DIGSA; format: in vivo, Digitaria sanguinalis; conditions: 320 g/ha, scored visually after 3 weeks vs untreated controls
From the text: as §1, §2

ALOMY [10] = test: Pre-emergence herbicidal action against ALOMY; format: in vivo, Alopecurus myosuroides; conditions: 320 g/ha, scored visually after 3 weeks vs untreated controls
From the text: as §1, §2

ECHCG [11] = test: Post-emergence herbicidal action against ECHCG; format: in vivo, Echinochloa crus-galli; conditions: 80 g/ha, visual assessment about 3 weeks after treatment vs untreated controls
Procedure: as §3

AVEFA [12] = test: Pre-emergence herbicidal action against AVEFA; format: in vivo, Avena fatua; conditions: 320 g/ha, scored visually after 3 weeks vs untreated controls
From the text: as §1, §2

Compound	Pre-emergence action against SETVI in % (SETVI [1]) [%]	Post-emergence action against LOLRI in % (LOLRI [2]) [%]	Post-emergence action against AVEFA in % (AVEFA [3]) [%]	Post-emergence action against DIGSA in % (DIGSA [4]) [%]	Pre-emergence herbicidal action against LOLRI in % (LOLRI [5]) [%]	Pre-emergence action against ECHCG in % (ECHCG [6]) [%]	Post-emergence action against ALOMY in % (ALOMY [7]) [%]	Post-emergence action against SETVI in % (SETVI [8]) [%]	Pre-emergence action against DIGSA in % (DIGSA [9]) [%]	Pre-emergence action against ALOMY in % (ALOMY [10]) [%]	Post-emergence action against ECHCG in % (ECHCG [11]) [%]	Pre-emergence action against AVEFA in % (AVEFA [12]) [%]
CC#Cc1cc(Br)c(C2=C(OC(=O)C(C)C)C3(CCC(COC)C3)NC2=O)c(CC)c1 (centres unmarked) [Example P-45]	80											
CC#Cc1cc(C)c(C2=C(O)C3(CCC(COCC)C3)NC2=O)c(F)c1 (centres unmarked) [Example I-37]	100	90	100	100	100	100	100	100	90	80	100	
CC#Cc1cc(Br)c(C2=C(OC(=O)OCC)C3(CCC(COCC)C3)NC2=O)c(OCC)c1 (centres unmarked) [Example P-95]	100	90	80	80	100	100	100	100	100	100	100	100
C=CCOCC1CCC2(C1)NC(=O)C(c1c(F)cc(C#CC)cc1OC)=C2OC(=O)OCC (centres unmarked) [Example P-78]	100			90	100	100	100	100	100	100	100	
CC#Cc1cc(Br)c(C2=C(O)C3(CCC(COC)C3)NC2=O)c(OCC)c1 (centres unmarked) [Example I-66]	100	100	80	90	100	100	100	100	100	100	100	100
CC#Cc1cc(F)c(C2=C(O)C3(CCC(COCC)C3)NC2=O)c(OC)c1 (centres unmarked) [Example I-43]	100	90	90		100	100	100	100	100	100	100	100
CC#Cc1cc(Br)c(C2=C(OC(=O)OCC)C3(CCC(COC)C3)NC2=O)c(OCC)c1 (centres unmarked) [Example P-90]	100	100	80	90	100	100	100	100	100	100	100	100
CC#Cc1cc(F)c(C2=C(OC(=O)C(C)C)C3(CCC(COC)C3)NC2=O)c(OC)c1 (centres unmarked) [Example P-66]	100	100	90	100	90	100	90	100	100	100	100	100
CC#Cc1cc(Br)c(C2=C(O)C3(CCC(COCC)C3)NC2=O)c(OCC)c1 (centres unmarked) [Example I-63]	100	90	80	90	100	100	100	100	100	100	100	100
CC#Cc1cc(C)c(C2=C(O)C3(CCC(COC)C3)NC2=O)c(F)c1 (centres unmarked) [Example I-34]	100	100	90	100	100		100	100	100		100	
C=CCOCC1CCC2(C1)NC(=O)C(c1c(F)cc(C#CC)cc1OC)=C2O (centres unmarked) [Example I-54]	100	90			100	100	100	100	100	100	100	80
CC#Cc1cc(F)c(C2=C(O)C3(CCC(COCCC)C3)NC2=O)c(OC)c1 (centres unmarked) [Example I-56]	100	80	90	90	100	100	90	100	100	80	100	
C=CCOCC1CCC2(C1)NC(=O)C(c1c(C)cc(C#CC)cc1OC)=C2OC(=O)OCC (centres unmarked) [Example P-68]	100	90	90	90	100	100	100	100	100	100	100	
CC#Cc1cc(Br)c(C2=C(OC(=O)OCC)C3(CCC(COC)C3)NC2=O)c(OCC)c1 (centres unmarked) [Example P-94]	100	90		80	100	100		100	100	100	100	100
CC#Cc1cc(F)c(C2=C(O)C3(CCC(COCCC)C3)NC2=O)c(OC)c1 (centres unmarked) [Example I-57]	100	80		90	100	100		100	100	100	100	
